Laboratory results taken from PMC3271735 (Journal of the American Chemical Society, 2012).

Legend:
Type in all cases: biochemical
Conditions in all cases: 100 μM inhibitor
Sirt1 = target: T1, Sirt1 (Homo sapiens, UniProt Q96EB6); assay: Sirt1 inhibition assay
T1 sequence (Q96EB6 1-747): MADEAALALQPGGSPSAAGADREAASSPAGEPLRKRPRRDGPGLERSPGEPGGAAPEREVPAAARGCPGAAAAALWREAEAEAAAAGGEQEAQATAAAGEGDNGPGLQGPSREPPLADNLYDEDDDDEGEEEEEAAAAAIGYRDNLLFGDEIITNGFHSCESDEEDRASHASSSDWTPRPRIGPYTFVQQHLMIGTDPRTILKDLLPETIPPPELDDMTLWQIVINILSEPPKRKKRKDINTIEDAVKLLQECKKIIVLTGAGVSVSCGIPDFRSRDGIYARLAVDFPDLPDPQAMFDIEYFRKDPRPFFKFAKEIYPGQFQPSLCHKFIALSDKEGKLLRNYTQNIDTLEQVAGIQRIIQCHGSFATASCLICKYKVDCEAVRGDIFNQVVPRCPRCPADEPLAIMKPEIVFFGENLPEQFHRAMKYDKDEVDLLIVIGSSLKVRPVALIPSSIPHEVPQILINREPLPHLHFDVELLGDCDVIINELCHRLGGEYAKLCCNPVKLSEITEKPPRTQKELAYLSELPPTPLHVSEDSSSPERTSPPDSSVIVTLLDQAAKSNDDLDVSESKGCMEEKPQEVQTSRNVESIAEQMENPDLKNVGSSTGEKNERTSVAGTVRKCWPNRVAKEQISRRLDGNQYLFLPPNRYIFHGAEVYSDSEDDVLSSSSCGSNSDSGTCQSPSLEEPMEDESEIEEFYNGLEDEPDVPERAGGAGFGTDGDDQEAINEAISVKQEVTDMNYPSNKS

Sirt2 = target: T2, Sirt2 (Homo sapiens, UniProt Q8IXJ6); assay: Sirt2 inhibition assay
T2 sequence (Q8IXJ6 1-389): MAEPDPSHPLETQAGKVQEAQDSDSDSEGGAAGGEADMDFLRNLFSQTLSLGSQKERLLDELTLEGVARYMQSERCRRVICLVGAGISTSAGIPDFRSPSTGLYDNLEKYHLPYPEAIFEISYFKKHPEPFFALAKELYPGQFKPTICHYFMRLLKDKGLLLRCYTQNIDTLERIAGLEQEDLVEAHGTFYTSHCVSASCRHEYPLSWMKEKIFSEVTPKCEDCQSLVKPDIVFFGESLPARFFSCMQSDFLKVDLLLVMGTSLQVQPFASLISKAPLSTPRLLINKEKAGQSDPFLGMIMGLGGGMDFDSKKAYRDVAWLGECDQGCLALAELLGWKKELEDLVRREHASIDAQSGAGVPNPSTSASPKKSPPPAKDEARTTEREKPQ

Sirt3 = target: T3, Sirt3 (Homo sapiens, UniProt Q9NTG7); assay: Sirt3 inhibition assay
T3 sequence (Q9NTG7 1-399): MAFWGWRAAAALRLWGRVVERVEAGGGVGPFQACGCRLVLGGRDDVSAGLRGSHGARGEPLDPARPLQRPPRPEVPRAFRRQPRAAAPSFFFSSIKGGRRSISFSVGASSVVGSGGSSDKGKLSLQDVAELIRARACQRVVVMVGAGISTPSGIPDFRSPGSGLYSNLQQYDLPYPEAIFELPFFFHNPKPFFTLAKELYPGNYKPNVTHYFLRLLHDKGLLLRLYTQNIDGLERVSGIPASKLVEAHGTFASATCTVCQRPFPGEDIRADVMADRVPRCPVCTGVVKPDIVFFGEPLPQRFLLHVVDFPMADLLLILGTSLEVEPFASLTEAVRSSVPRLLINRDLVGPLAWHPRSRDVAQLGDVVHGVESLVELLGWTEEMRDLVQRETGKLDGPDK

C[C@H](NC(=O)[C@H](CCCCN)NC(=O)CNC(=O)CNC(=O)[C@@H](NC(=O)[C@H](CO)NC(=O)[C@H](CCCCNC(=S)CCC(=O)O)NC(=O)[C@H](CCCNC(=N)N)NC(=O)[C@H](C)NC(=O)[C@@H](NC(=O)[C@H](CCC(N)=O)NC(=O)[C@@H](N)CCCCN)[C@@H](C)O)[C@@H](C)O)C(=O)O [H3K9TSu, KQTAR(TSuK)STGGKA]
does not inhibit: inhibition of Sirt1 at 100 μM (Sirt1) | inhibition of Sirt2 at 100 μM (Sirt2) | inhibition of Sirt3 at 100 μM (Sirt3)
